# Laboratory results taken from PubChem BioAssay (NCI).
#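 A five-concentration, 48-hour dose response in 96-well plates underlies each endpoint, interpolated linearly between surrounding concentrations. TGI: total growth inhibition.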
# Assays:
# Test in all cases: NCI tumour cell line growth inhibition, 48 h
# OVCAR-8 ovarian = system: OVCAR-8 ovarian
# T-47D breast = system: T-47D breast
# CAKI-1 renal = system: CAKI-1 renal
# MOLT-4 leukemia = system: MOLT-4 leukemia
# A549 NSCLC = system: A549 NSCLC
# SK-OV-3 ovarian = system: SK-OV-3 ovarian
# CCRF-CEM leukemia = system: CCRF-CEM leukemia
# UO-31 renal = system: UO-31 renal
# UACC-62 melanoma = system: UACC-62 melanoma
# UACC-257 melanoma = system: UACC-257 melanoma
Structure (SMILES),TGI (OVCAR-8 ovarian) [µM],TGI (T-47D breast) [µM],TGI (CAKI-1 renal) [µM],TGI (MOLT-4 leukemia) [µM],TGI (A549 NSCLC) [µM],TGI (SK-OV-3 ovarian) [µM],TGI (CCRF-CEM leukemia) [µM],TGI (UO-31 renal) [µM],TGI (UACC-62 melanoma) [µM],TGI (UACC-257 melanoma) [µM]
COc1cc(Cc2cc3c(c(C(=O)O)c2Br)OCO3)cc(OC)c1OC,> 100,> 100,> 100,> 100,> 100,> 100,> 100,> 100,> 100,> 100
COc1ccc(C2=CC(c3ccccc3)n3nnnc3N2)cc1 (stereo not given),> 100,> 100,> 100,> 100,> 100,> 100,> 100,> 100,> 100,> 100
CC1(C)[C@H](C(=O)O)N2C(=O)[C@@H](NS(=O)(=O)c3ccc([N+](=O)[O-])cc3)[C@H]2S1(=O)=O,> 100,> 100,> 100,> 100,> 100,> 100,> 100,> 100,> 100,> 100
O=C(O)c1ccccc1NC(c1ccccc1)c1ccc2cccnc2c1O (stereo not given),> 100,39.4,50.1,34,> 100,> 100,> 22.7,23.8,> 50,43.9
COc1cc(C2SC(N)=Nc3c2c(C)nn3C(=O)c2ccccc2O)cc(OC)c1OC (stereo not given),> 10,> 10,> 10,> 10,> 10,> 10,> 10,> 10,8.19,> 10
COc1ccc(/C=C2\CCCC(CN(C)C)C2=O)cc1 (stereo not given),26.4,7.72,3.15,2.56,33.9,23.4,> 100,8.57,4.13,8.96
C=CCOC(=O)N1[C@H]2C#C/C=C\C#C[C@]3(O)C(=O)C[C@H](C)[C@]24O[C@]43C2=CC(=O)C=CC21OC (stereo not given in full),47.9,> 100,> 100,52.9,> 100,> 100,79.5,> 100,> 100,59
NC(=O)c1nnc2ccc(F)cc2c1N,> 100,> 100,> 100,> 100,> 100,> 100,> 100,> 100,> 100,> 100
Cc1c2c(c(C)n1-c1ccccc1)C(=O)N(CCCCN1CCN(c3ccccc3)CC1)C2=O,31.4,28.8,> 100,26.2,> 100,> 100,26.1,24.8,36.8,22.2
CC(C)(C)OC(=O)NCCCCC(N)C(N)=O (stereo not given),> 100,> 100,> 100,> 100,> 100,> 100,> 100,> 100,> 100,> 100
CCOC(=O)c1ccc(Nc2cnc3cc(C(F)(F)F)ccc3n2)cc1,> 100,> 100,> 100,> 100,> 100,> 100,> 100,> 100,> 100,> 100
O=c1cc(NCCCCCO)[nH]c(=O)[nH]1,> 100,> 100,> 100,> 100,> 100,> 100,> 100,> 100,> 100,> 100
Cc1ccc(-c2nc(C)c(C(=O)Nc3ccc(Cl)cc3)s2)cc1,36.9,> 100,40.8,> 100,> 100,45.2,> 100,49.3,45.8,> 100
CCOC(=O)c1c2c3c(cccc3[nH]c1=O)Sc1ncccc1-2,> 100,> 100,70.7,68.5,85.3,> 100,> 100,81.5,35.2,> 100
C=C(C)C(=O)O[C@H]1C/C(CO)=C/CCC(=C)C(OC(C)=O)[C@H]2OC(=O)C(=C)[C@H]12 (stereo not given in full),39.8,28,21.5,17.2,55.8,> 100,6.2,17.7,23,24.8
NNC(=O)CSc1nc2ccc(I)cc2c(=O)n1Cc1ccccc1,> 100,> 100,40.2,45.3,54.6,32.7,19,35.4,40.4,44
Nc1cc2c3c(c1)Oc1cc(N)cc4c1C3c1c(cc(N)cc1O4)O2,34,> 93.2,36.1,> 100,> 100,> 100,81.5,> 100,> 69.6,> 85.1
